In PubChem BioAssay AID1745844 (Carcinogenic Potency Database (CPDB), 2022):
Several values for one entry are separate records, joined by “and”; a condition that tells them apart may be missing. Equal entries are not always repeated.

System: rodent lifetime carcinogenesis bioassay, tumor incidence TD50
Experiment: chronic cancer bioassays in animals – CPDB, compiled studies (AID 1745844)
Settings: rat, strain Sprague-Dawley

C=CCl
TD50 (females, inhaled, site: extrahepatic tissue, lesion: angioma, dosed 52 weeks, study length 111 weeks): 115 mg/kg/day | TD50 (females, inhaled, site: extrahepatic tissue, lesion: angioma, dosed 52 weeks, study length 139 weeks): 399 mg/kg/day | TD50 (females, inhaled, site: extrahepatic tissue, lesion: angiosarcoma, dosed 25 weeks, study length 135 weeks): 2420 mg/kg/day | TD50 (females, inhaled, site: extrahepatic tissue, lesion: angiosarcoma, dosed 52 weeks, study length 111 weeks): 52.9 mg/kg/day | TD50 (females, inhaled, site: extrahepatic tissue, lesion: angiosarcoma, dosed 52 weeks, study length 131 weeks): 21400 mg/kg/day | TD50 (females, inhaled, site: kidney, lesion: nephroblastoma, dosed 25 weeks, study length 135 weeks): 3140 mg/kg/day | TD50 (females, inhaled, site: kidney, lesion: nephroblastoma, dosed 52 weeks, study length 111 weeks): 17.5 mg/kg/day | TD50 (females, inhaled, site: kidney, lesion: nephroblastoma, dosed 52 weeks, study length 139 weeks): 230 mg/kg/day | TD50 (females, inhaled, site: liver, lesion: angioma, dosed 25 weeks, study length 127 weeks): 913 mg/kg/day | TD50 (females, inhaled, site: liver, lesion: angioma, dosed 25 weeks, study length 135 weeks): 507 mg/kg/day | TD50 (females, inhaled, site: liver, lesion: angioma, dosed 52 weeks, study length 111 weeks): 30.7 mg/kg/day | TD50 (females, inhaled, site: liver, lesion: angioma, dosed 52 weeks, study length 139 weeks): 378 mg/kg/day | TD50 (females, inhaled, site: liver, lesion: angioma, dosed 71 weeks, study length 71 weeks): 9130 mg/kg/day | TD50 (females, inhaled, site: liver, lesion: angiosarcoma, dosed 25 weeks, study length 127 weeks): 4460 mg/kg/day | TD50 (females, inhaled, site: liver, lesion: angiosarcoma, dosed 25 weeks, study length 135 weeks): 2460 mg/kg/day | TD50 (females, inhaled, site: liver, lesion: angiosarcoma, dosed 52 weeks, study length 111 weeks): 20.2 mg/kg/day | TD50 (females, inhaled, site: liver, lesion: angiosarcoma, dosed 52 weeks, study length 131 weeks): 735 mg/kg/day and 21 mg/kg/day | TD50 (females, inhaled, site: liver, lesion: angiosarcoma, dosed 52 weeks, study length 139 weeks): 113 mg/kg/day | TD50 (females, inhaled, site: liver, lesion: angiosarcoma, dosed 71 weeks, study length 71 weeks): 240 mg/kg/day | TD50 (females, inhaled, site: liver, lesion: hepatocellular carcinoma, dosed 71 weeks, study length 71 weeks): 1720 mg/kg/day | TD50 (females, inhaled, site: liver, lesion: hepatoma, dosed 25 weeks, study length 135 weeks): 357 mg/kg/day | TD50 (females, inhaled, site: liver, lesion: hepatoma, dosed 52 weeks, study length 131 weeks): 244 mg/kg/day | TD50 (females, inhaled, site: liver, lesion: hepatoma, dosed 52 weeks, study length 139 weeks): 140 mg/kg/day | TD50 (females, inhaled, site: mammary gland, lesion: adenocarcinoma, dosed 25 weeks, study length 135 weeks): 291 mg/kg/day | TD50 (females, inhaled, site: mammary gland, lesion: adenocarcinoma, dosed 52 weeks, study length 111 weeks): 5.91 mg/kg/day | TD50 (females, inhaled, site: mammary gland, lesion: adenocarcinoma, dosed 52 weeks, study length 131 weeks): 1.66 mg/kg/day | TD50 (females, inhaled, site: mammary gland, lesion: adenocarcinoma, dosed 52 weeks, study length 139 weeks): 141 mg/kg/day | TD50 (males, by gavage, site: Zymbal's gland, lesion: carcinoma, dosed 52 weeks, study length 127 weeks): 315 mg/kg/day | TD50 (males, by gavage, site: Zymbal's gland, lesion: carcinoma, dosed 59 weeks, study length 129 weeks): 4.75 mg/kg/day | TD50 (males, by gavage, site: any site (literature study), lesion: several types, types named in the paper, dosed 52 weeks, study length 127 weeks): 37.9 mg/kg/day | TD50 (males, by gavage, site: any site (literature study), lesion: several types, types named in the paper, dosed 59 weeks, study length 129 weeks): 16.1 mg/kg/day | TD50 (males, by gavage, site: extrahepatic tissue, lesion: angioma, dosed 52 weeks, study length 127 weeks): 409 mg/kg/day | TD50 (males, by gavage, site: kidney, lesion: nephroblastoma, dosed 52 weeks, study length 127 weeks): 102 mg/kg/day | TD50 (males, by gavage, site: liver, lesion: angioma, dosed 52 weeks, study length 127 weeks): 430 mg/kg/day | TD50 (males, by gavage, site: liver, lesion: angiosarcoma, dosed 52 weeks, study length 127 weeks): 57.4 mg/kg/day | TD50 (males, by gavage, site: liver, lesion: angiosarcoma, dosed 59 weeks, study length 129 weeks): 8.45 mg/kg/day | TD50 (males, by gavage, site: liver, lesion: hepatoma, dosed 59 weeks, study length 129 weeks): 3.36 mg/kg/day | TD50 (males, inhaled, site: Zymbal's gland, lesion: carcinoma, dosed 25 weeks, study length 115 weeks): 284 mg/kg/day | TD50 (males, inhaled, site: Zymbal's gland, lesion: carcinoma, dosed 25 weeks, study length 139 weeks): 226 mg/kg/day | TD50 (males, inhaled, site: Zymbal's gland, lesion: carcinoma, dosed 52 weeks, study length 131 weeks): 2320 mg/kg/day | TD50 (males, inhaled, site: Zymbal's gland, lesion: carcinoma, dosed 52 weeks, study length 139 weeks): 50.4 mg/kg/day | TD50 (males, inhaled, site: adrenal gland, lesion: one or several types, types not named, dosed 52 weeks, study length 130 weeks): 251 mg/kg/day | TD50 (males, inhaled, site: any site (literature study), lesion: several types, types named in the paper, dosed 25 weeks, study length 115 weeks): 134 mg/kg/day | TD50 (males, inhaled, site: any site (literature study), lesion: several types, types named in the paper, dosed 25 weeks, study length 139 weeks): 284 mg/kg/day | TD50 (males, inhaled, site: any site (literature study), lesion: several types, types named in the paper, dosed 52 weeks, study length 130 weeks): 17.3 mg/kg/day | TD50 (males, inhaled, site: any site (literature study), lesion: several types, types named in the paper, dosed 52 weeks, study length 131 weeks): 950 mg/kg/day | TD50 (males, inhaled, site: any site (literature study), lesion: several types, types named in the paper, dosed 52 weeks, study length 139 weeks): 8.67 mg/kg/day | TD50 (males, inhaled, site: brain, lesion: neuroblastoma, dosed 52 weeks, study length 131 weeks): 4580 mg/kg/day | TD50 (males, inhaled, site: extrahepatic tissue, lesion: angioma, dosed 25 weeks, study length 115 weeks): 5810 mg/kg/day | TD50 (males, inhaled, site: extrahepatic tissue, lesion: angioma, dosed 52 weeks, study length 123 weeks): 31.4 mg/kg/day | TD50 (males, inhaled, site: extrahepatic tissue, lesion: angioma, dosed 52 weeks, study length 131 weeks): 8180 mg/kg/day | TD50 (males, inhaled, site: extrahepatic tissue, lesion: angioma, dosed 52 weeks, study length 139 weeks): 18 mg/kg/day
